Measurements: patent US11980669B2, “Capped and uncapped antibody cysteines, and their use in antibody-drug conjugation” (PFIZER INC., priority 2015, dated 2024)

Tested on: stable CHO cells
Assay: Cell viability and cell counts of stable CHO cells cultured with capping reagent in the medium
Assay type: cell-based
Conditions: 0.5 mM DTNB in CD-CHO medium, 72 hrs
Protocol: Ellman's reagent, 5,5′-dithiobis-(2-nitrobeoic acid) (DTNB) was examined as a capping agent to add thionitrobenzoate (TNB). (DTNB is commonly used for assaying free thiol content in proteins. This reagent cannot disrupt disulfide bond but can react with free Cys. It has been used to treat partially-reduced antibody materials to generate four free Cys for drug conjugation.) A CHO cell line stably expressing the cysteine mutant antibody was grown to 4×10e6/ml in CD-CHO medium, then switched to fresh CD-CHO medium, fresh CD-CHO medium with 0.5 mM DTNB, or the triple-low medium as a control. Cells were cultured in these conditions for 72 hrs, cell viability was measured and conditioned medium was harvested. […] Protein expression in the DTNB-containing medium was also 5-fold lower than those in CD-CHO. Antibody purification from ProA column and protein migration in SDS-PAGE from all three culture conditions materials were nearly identical, as shown in FIG. 5A. All three samples in SEC analysis show monomer species, with very little aggregation.
19.8 mM MTFB, dissolved in DMSO, was added to 50 ml cell culture at a final concentration of 0.25 mM for 24 hr. Cell viability was measured and conditioned medium was harvested. […] Antibody HAB08L443C at such condition was subsequently purified by a 1 ml-ProA column (FIG. 12B). […]

O=C(O)c1cc(SSc2ccc([N+](=O)[O-])c(C(=O)O)c2)ccc1[N+](=O)[O-] [DTNB, 5,5′-dithiobis-(2-nitrobeoic acid)]
Cell viability: 40%
